Assay results: patent US20250339409A1, “USES OF PAN BET INHIBITORS” (VYNE THERAPEUTICS INC., priority 2021, published 2025)

Test system: back skin of healthy mice
Assay: Tolerance assessment of BETi1 0.01% and 1.0% in healthy (non-induced) mice
Type: in vivo
Settings: for Modified PASI Mean score values / PASI Mean score values: female, Balb/c
Protocol: Thirty-six (36) female Balb/c mice are weighed and randomly divided into 9 groups (n=4) according to body weight on D1. For mice of native group 1 and tolerance groups 8 and 9, no induction of psoriasis is performed between D1 and D13. Psoriasis is induced in groups 2 to 7 by once daily topical application for 13 days (from day 1 to day 13) of 65 mg of Aldara™ cream (5.0% imiquimod) onto the shaved and epilated back of mice. Before the first treatment, a second randomization of mice of the 6 imiquimod-induced psoriasis groups is performed according to the severity of psoriasis (PASI), and also the body weight of mice. Starting on day 7 and until day 13, 100 mg of test formulations […] and 65 mg of vehicle (groups 1 and […]) are topically administered once daily for 7 consecutive days onto the shaved back skin of mice. Several measurements are taken during treatment period from day 7 to day 14: psoriasis index (PASI), body weight, use of enrichment and mortality. At the end of treatment period, TEWL is assessed, and blood and skin samples are collected. Histological analysis of skin samples is used for microscopic scoring of psoriasis and the determination of the thickness of parakeratosis and epidermis and blood analysis is used for assessing the level of proinflammatory biomarkers (cytokines assays). The effect of treatment of psoriasis induced mice with BETi formulations at the four dose levels are compared with Dermoval® cream containing 0.05% clobetasol propionate (reference) and vehicle (positive control) and also with healthy mice treated with vehicle (negative control).
The tolerance assessment to treatments with 0.01% and 1.0% BETi is performed daily during the treatment period (D7 to D13) as well as on the day mice are sacrifice (D14), and takes into account the following 5 parameters:
The presence of erythema on the skin with the following scoring grid: • 0=no or no more erythema on the skin, • 1=weak erythema on the skin, • 2=moderate erythema on the skin, • 3=important erythema on the skin, • 4=severe erythema on the skin.
The presence of induration of the skin with the following scoring grid: • 0=no or no more induration of the skin, • 1=weak induration of the skin, • 2=moderate induration of the skin, • 3=important induration of the skin, • 4=severe induration of the skin.
The presence of ulceration of the skin with the following scoring grid: • 0=no or no more ulceration of the skin, • 1=weak ulceration of the skin, • 2=moderate ulceration of the skin, • 3=important ulceration of the skin, • 4=severe ulceration of the skin.
The presence of necrosis of the skin with the following scoring grid: • 0=no or no more necrosis of the skin, • 1=weak necrosis of the skin, • 2=moderate necrosis of the skin, • 3=important necrosis of the skin, • 4=severe necrosis of the skin.
The presence of peeling of the skin with the following scoring grid: • 0=no or no more peeling of the skin, • 1=weak peeling of the skin, • 2=moderate peeling of the skin, • 3=important peeling of the skin, • 4=severe peeling of the skin.
The investigation addressed, amongst other things, the effect of the different BETi1 concentrations (0.001%, 0.01%, 0.1% and 1.0%) on various parameters. Tolerance was tested at two BETi1 concentrations (0.01% and 1%) in healthy mice.

Cn1cc(-c2cccc(O)c2Oc2ccccc2)c2cc[nH]c2c1=O [BETi1]
Body weight, individual mouse (Tolerance, healthy mice, D 1, listed as BETi1 1.0%): 18.49 | Mean body weights (Tolerance, healthy mice, D 11, listed as BETi1 1.0%): 18.97 | Body weight, individual mouse (Tolerance, healthy mice, D 14, listed as BETi1 1.0%): 19.58 | Modified PASI Mean score values (mouse, in vivo): 0.00 | Modified PASI Mean score values (mouse, in vivo, 1 study day): 0.00 | PASI Mean score values (mouse, in vivo, 2 study day): 0.00 | PASI Mean score values (mouse, in vivo, 3 study day): 0.00 | PASI Mean score values (mouse, in vivo, 4 study day): 0.00 | PASI Mean score values (mouse, in vivo, 5 study day): 0.00 | PASI Mean score values (mouse, in vivo, 6 study day): 0.00 | PASI Mean score values (mouse, in vivo, 7 study day): 0.00 | PASI Mean score values (mouse, in vivo, 8 study day): 0.00 | Modified PASI Mean score values (mouse, in vivo, 9 study day): 0.00 | PASI Mean score values (mouse, in vivo, 9 study day): 0.00 | Modified PASI Mean score values (mouse, in vivo, 10 study day): 0.00 | PASI Mean score values (mouse, in vivo, 10 study day): 0.00 | Modified PASI Mean score values (mouse, in vivo, 11 study day): 0.00 | PASI Mean score values (mouse, in vivo, 11 study day): 0.00 | Modified PASI Mean score values (mouse, in vivo, 12 study day): 0.00 | PASI Mean score values (mouse, in vivo, 12 study day): 0.00 | Modified PASI Mean score values (mouse, in vivo, 13 study day): 0.00 | PASI Mean score values (mouse, in vivo, 13 study day): 0.00 | Modified PASI Mean score values (mouse, in vivo, 14 study day): 0.00 | PASI Mean score values (mouse, in vivo, 14 study day): 0.00 | local skin reaction to treatment (mouse, in vivo): did not experience any noticeable local skin reaction
